Test results taken from ChEMBL document CHEMBL2029345, “BC-spiro-estradiols. Synthesis and estrogen receptor binding affinity of four new estradiol isomers” (Bioorg Med Chem Lett, 2012).

Experiments:
[1] = target: T1, Estrogen receptor (Homo sapiens) (UniProt P03372); experiment: Displacement of [3H]estradiol from human full length estrogen receptor alpha by competitive radiometric assay relative to estradiol
T1 sequence (whole entry): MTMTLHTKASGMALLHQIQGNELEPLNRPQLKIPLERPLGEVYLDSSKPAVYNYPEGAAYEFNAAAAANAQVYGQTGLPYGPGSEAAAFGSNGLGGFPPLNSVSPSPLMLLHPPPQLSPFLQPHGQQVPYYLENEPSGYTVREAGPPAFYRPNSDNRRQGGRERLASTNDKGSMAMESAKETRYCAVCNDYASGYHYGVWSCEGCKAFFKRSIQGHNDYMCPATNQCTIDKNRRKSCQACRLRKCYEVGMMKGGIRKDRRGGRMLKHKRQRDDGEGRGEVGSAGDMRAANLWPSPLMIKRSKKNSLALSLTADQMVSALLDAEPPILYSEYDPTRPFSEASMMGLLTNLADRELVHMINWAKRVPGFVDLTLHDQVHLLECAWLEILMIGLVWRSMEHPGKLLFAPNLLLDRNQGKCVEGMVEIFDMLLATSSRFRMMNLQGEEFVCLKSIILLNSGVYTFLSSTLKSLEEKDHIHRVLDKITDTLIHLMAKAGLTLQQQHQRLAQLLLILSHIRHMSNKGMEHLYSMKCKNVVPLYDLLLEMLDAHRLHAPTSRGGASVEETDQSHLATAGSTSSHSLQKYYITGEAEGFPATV

[2] = target: Estrogen receptor beta (Homo sapiens) (UniProt Q92731); experiment: Displacement of [3H]estradiol from human full length estrogen receptor beta by competitive radiometric assay relative to estradiol
Sequence of Estrogen receptor beta (Homo sapiens) (Q92731 whole entry): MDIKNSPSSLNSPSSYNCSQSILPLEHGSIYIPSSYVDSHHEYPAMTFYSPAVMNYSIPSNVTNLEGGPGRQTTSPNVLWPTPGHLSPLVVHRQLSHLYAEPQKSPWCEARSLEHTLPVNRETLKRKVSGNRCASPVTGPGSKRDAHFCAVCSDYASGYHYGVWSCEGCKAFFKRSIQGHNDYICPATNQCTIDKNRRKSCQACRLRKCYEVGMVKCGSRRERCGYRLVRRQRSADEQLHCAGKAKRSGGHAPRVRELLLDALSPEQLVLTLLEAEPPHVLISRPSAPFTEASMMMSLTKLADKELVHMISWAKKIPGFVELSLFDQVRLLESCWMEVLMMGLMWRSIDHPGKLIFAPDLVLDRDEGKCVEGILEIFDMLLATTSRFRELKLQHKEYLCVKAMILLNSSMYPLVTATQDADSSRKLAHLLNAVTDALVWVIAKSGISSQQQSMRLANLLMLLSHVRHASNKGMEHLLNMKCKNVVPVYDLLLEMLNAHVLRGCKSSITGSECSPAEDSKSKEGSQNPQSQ

SMILES	relative binding affinity (RBA) [1]	relative binding affinity (RBA) [2]
C[C@]12CC[C@]3(C[C@H]1CC[C@@H]2O)OCc1cc(O)ccc13	2.46	9.05
C[C@]12CC[C@@]3(CCc4cc(O)ccc43)C[C@H]1CC[C@@H]2O	6.4	40.5
C[C@]12CC[C@]3(C[C@H]1CC[C@@H]2O)OCCc1cc(O)ccc13	0.31	3.47
C[C@]12CC[C@@]3(C[C@H]1CC[C@H]2O)OCc1cc(O)ccc13	0.014	0.02
C[C@]12CC[C@@]3(CCc4cc(O)ccc43)C[C@@H]1CC[C@@H]2O	0.98	2.43
C[C@]12CC[C@@H](c3ccc(O)cc3)C[C@H]1CC[C@H]2O	0.061	0.59
C[C@]12CC[C@]3(CCc4cc(O)ccc43)C[C@H]1CC[C@H]2O	0.34	0.37
C[C@]12CC[C@]3(CCCc4cc(O)ccc43)C[C@H]1CC[C@H]2O	0.05	0.16
C[C@]12CC[C@]3(C[C@H]1CC[C@@H]2O)OC(=O)c1cc(O)ccc13	1.98	6.07
C[C@]12CC[C@@]3(CCCc4cc(O)ccc43)C[C@H]1CC[C@@H]2O	3.7	39.7
C[C@]12CC[C@H](c3ccc(O)cc3)C[C@@H]1CC[C@@H]2O	2.38	9.97
C[C@]12CC[C@]3(CCc4cc(O)ccc43)C[C@@H]1CC[C@@H]2O	0.12	0.23
